Biological target: human RAF1 (Homo sapiens (Human), UniProt P04049)
Experiment: Protein kinase assay (radiometric 33P-ATP, MEK1 (K97R) substrate), RAF-1
Type: biochemical
Settings: human MEK1 (K97R) substrate 3 micromolar, ATP 10 micromolar; 10-dose, 3-fold serial dilution starting at 10 micromolar; read-out: RAF-1 IC50
Description: Example 1: Kinase Assay Protocol
Assay platform was used to measure kinase/inhibitor interactions as described previously (Anastassiadis et al., 2011). In brief, for each reaction, kinase and substrate were mixed in a buffer containing 20 mM HEPES (pH 7.5), 10 mM MgCl2, 1 mM EGTA, 0.02% Brij35, 0.02 mg/mL BSA, 0.1 mM Na3VO4, 2 mM DTT, and 1% DMSO. All compounds were solubilized in DMSO. Compounds were then added to each reaction mixture via acoustic dispense using an ECHO 550 nanoliter dispenser. For human RAF1 testing, human MEK1 (K97R) was used as a substrate at a concentration of 3 micromolar, with a final ATP concentration of 10 micromolar. For human BRAF testing, human MEK1 (K97R) was used as a substrate at 1 micromolar concentration, with a final ATP concentration of 25 micromolar. […] After a 20-min incubation, ATP (Sigma-Aldrich, St. Louis, Mo. 63178) and [g33P] ATP (specific activity 10 microCi/microliter) purchased at PerkinElmer (Boston, Mass., 02118 Cat #BLU 003H250UC) were added at a final total concentration of […]. Reactions were carried out at room temperature for 2 hr and spotted onto P81 ion exchange cellulose chromatography paper (Reaction Biology). Filter paper was washed in 0.75% phosphoric acid to remove unincorporated ATP. The percent remaining kinase activity relative to a vehicle-containing (DMSO) kinase reaction was calculated for each kinase/inhibitor pair. IC50 values were calculated using Prism 5 (GraphPad).

Sequence of human RAF1 (P04049 whole entry): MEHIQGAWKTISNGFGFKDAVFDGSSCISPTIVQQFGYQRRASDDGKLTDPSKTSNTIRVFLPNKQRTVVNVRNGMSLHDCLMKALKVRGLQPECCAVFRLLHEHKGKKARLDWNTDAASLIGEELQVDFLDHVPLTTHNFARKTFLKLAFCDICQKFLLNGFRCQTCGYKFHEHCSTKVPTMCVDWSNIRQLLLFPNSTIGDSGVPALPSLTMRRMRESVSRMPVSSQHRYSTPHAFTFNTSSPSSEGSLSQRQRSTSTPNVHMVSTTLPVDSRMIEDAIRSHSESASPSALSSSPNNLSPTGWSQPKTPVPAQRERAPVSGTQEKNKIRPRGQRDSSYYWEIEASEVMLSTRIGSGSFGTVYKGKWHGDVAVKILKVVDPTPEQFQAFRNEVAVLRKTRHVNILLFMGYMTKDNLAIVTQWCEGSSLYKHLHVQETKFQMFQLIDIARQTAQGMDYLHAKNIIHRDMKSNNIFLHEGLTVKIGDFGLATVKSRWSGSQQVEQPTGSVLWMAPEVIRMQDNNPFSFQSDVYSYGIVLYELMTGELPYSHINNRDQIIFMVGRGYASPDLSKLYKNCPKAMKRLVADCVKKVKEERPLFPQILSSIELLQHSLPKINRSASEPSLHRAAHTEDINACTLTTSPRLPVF

IC50	Compound
< 1 nM	Cc1ccc(NC(=O)N2CC[C@@H](CC(F)(F)F)C2)cc1-c1cc(-c2ccnn2C)nc(N2CCOCC2)c1 [Example 49, (3S)—N-[4-methyl-3-[2-(2-methylpyrazol-3-yl)-6-(morpholin-4-yl)pyridin-4-yl]phenyl]-3-(2,2,2-trifluoroethyl)pyrrolidine-1-carboxamide]
1 to 10 nM	Cc1cc(-c2cc(-c3cc(NC(=O)N4CC[C@@H](CC(F)(F)F)C4)ccc3C)cc(N3CCOCC3)n2)n(C)n1 [Example 50, (3S)—N-[3-[2-(2,5-dimethylpyrazol-3-yl)-6-(morpholin-4-yl)pyridin-4-yl]-4-methylphenyl]-3-(2,2,2-trifluoroethyl)pyrrolidine-1-carboxamide]
1 to 10 nM	Cc1ccc(NC(=O)N2CC[C@@H](CC(F)(F)F)C2)cc1-c1cc(-c2c(C)n[nH]c2C)nc(N2CCOCC2)c1 [Example 51, (3S)—N-[3-[2-(3,5-dimethyl-1H-pyrazol-4-yl)-6-(morpholin-4-yl)pyridin-4-yl]-4-methylphenyl]-3-(2,2,2-trifluoroethyl)pyrrolidine-1-carboxamide]
1 to 10 nM	Cc1ccc(NC(=O)N2CC[C@@H](CC(F)(F)F)C2)cc1-c1cc(-c2cc(C)n(C)n2)nc(N2CCOCC2)c1 [Example 52, (3S)—N-[3-[2-(1,5-dimethylpyrazol-3-yl)-6-(morpholin-4-yl)pyridin-4-yl]-4-methylphenyl]-3-(2,2,2-trifluoroethyl)pyrrolidine-1-carboxamide]
1 to 10 nM	Cc1ccc(NC(=O)N2CC[C@@H](CC(F)(F)F)C2)cc1-c1cc(-c2c[nH]cn2)nc(N2CCOCC2)c1 [Example 53, (3S)—N-[3-[2-(1H-imidazol-4-yl)-6-(morpholin-4-yl)pyridin-4-yl]-4-methylphenyl]-3-(2,2,2-trifluoroethyl)pyrrolidine-1-carboxamide]
1 to 10 nM	Cc1ccc(NC(=O)N2CC[C@@H](CC(F)(F)F)C2)cc1-c1cc(-c2cn(C)cn2)nc(N2CCOCC2)c1 [Example 54, (3S)—N-{4-methyl-3-[2-(1-methylimidazol-4-yl)-6-(morpholin-4-yl)pyridin-4-yl]phenyl}-3-(2,2,2-trifluoroethyl)pyrrolidine-1-carboxamide]
1 to 10 nM	Cc1ccc(NC(=O)N2CC[C@@H](CC(F)(F)F)C2)cc1-c1cc(C#CC(C)N)nc(N2CCOCC2)c1 (stereo partly drawn) [Example 55, (3S)—N-{3-[2-(3-aminobut-1-yn-1-yl)-6-(morpholin-4-yl)pyridin-4-yl]-4-methylphenyl}-3-(2,2,2-trifluoroethyl)pyrrolidine-1-carboxamide]
1 to 10 nM	Cc1ccc(NC(=O)N2CC[C@@H](CC(F)(F)F)C2)cc1-c1cc(N2CCOCC2)nc(C(F)(F)F)c1 [Example 56, (3S)—N-[4-methyl-3-[2-(morpholin-4-yl)-6-(trifluoromethyl)pyridin-4-yl]phenyl]-3-(2,2,2-trifluoroethyl)pyrrolidine-1-carboxamide]
1 to 10 nM	Cc1ccc(NC(=O)N2CC[C@@H](CC(F)(F)F)C2)cc1-c1cc(C(F)F)nc(N2CCOCC2)c1 [Example 57, (3S)—N-{3-[2-(difluoromethyl)-6-(morpholin-4-yl)pyridin-4-yl]-4-methylphenyl}-3-(2,2,2-trifluoroethyl)pyrrolidine-1-carboxamide]
1 to 10 nM	Cc1ccc(NC(=O)N2CC[C@@H](CC(F)(F)F)C2)cc1-c1cc(-c2cnn(CCO)c2)nc(N2CCOCC2)c1 [Example 58, (3S)—N-(3-(2-(1-(2-hydroxyethyl)-1H-pyrazol-4-yl)-6-morpholinopyridin-4-yl)-4-methylphenyl)-3-(2,2,2-trifluoroethyl)pyrrolidine-1-carboxamide]
1 to 10 nM	Cc1ccc(NC(=O)N2CC[C@@H](CC(F)(F)F)C2)cc1-c1cc(-c2ccnn2CCO)nc(N2CCOCC2)c1 [Example 59, (3S)—N-(3-{2-[2-(2-hydroxyethyl)pyrazol-3-yl]-6-(morpholin-4-yl)pyridin-4-yl}-4-methylphenyl)-3-(2,2,2-trifluoroethyl)pyrrolidine-1-carboxamide]
1 to 10 nM	Cc1ccc(NC(=O)N2CC[C@@H](CC(F)(F)F)C2)cc1-c1cc(CO)nc(N2CCOCC2)c1 [Example 60, (3S)—N-[3-[2-(hydroxymethyl)-6-(morpholin-4-yl)pyridin-4-yl]-4-methylphenyl]-3-(2,2,2-trifluoroethyl)pyrrolidine-1-carboxamide]
1 to 10 nM	Cc1ccc(NC(=O)N2CC[C@@H](CC(F)(F)F)C2)cc1-c1cc(-c2nncn2C)nc(N2CCOCC2)c1 [Example 61, (3S)—N-{4-methyl-3-[2-(4-methyl-1,2,4-triazol-3-yl)-6-(morpholin-4-yl)pyridin-4-yl]phenyl}-3-(2,2,2-trifluoroethyl)pyrrolidine-1-carboxamide]
1 to 10 nM	Cc1ccc(NC(=O)N2CCO[C@H](C(F)(F)F)C2)cc1-c1cc(-c2cnn(C)c2)nc(N2CCOCC2)c1 [Example 62, (2S)—N-{4-methyl-3-[2-(1-methylpyrazol-4-yl)-6-(morpholin-4-yl)pyridin-4-yl]phenyl}-2-(trifluoromethyl)morpholine-4-carboxamide]
1 to 10 nM	Cc1ccc(NC(=O)N2CCO[C@@H](C(F)(F)F)C2)cc1-c1cc(-c2cnn(C)c2)nc(N2CCOCC2)c1 [Example 63, (2R)—N-{4-methyl-3-[2-(1-methylpyrazol-4-yl)-6-(morpholin-4-yl)pyridin-4-yl]phenyl}-2-(trifluoromethyl)morpholine-4-carboxamide]
1 to 10 nM	Cc1ccc(NC(=O)N2CC[C@@H](OC(F)(F)F)C2)cc1-c1cc(-c2cnn(C)c2)nc(N2CCOCC2)c1 [Example 64, (3R)—N-{4-methyl-3-[2-(1-methylpyrazol-4-yl)-6-(morpholin-4-yl)pyridin-4-yl]phenyl}-3-(trifluoromethoxy)pyrrolidine-1-carboxamide]
< 1 nM	Cc1ccc(NC(=O)N2CCO[C@@H](C(F)(F)F)C2)cc1-c1cc(-c2ccnn2C)nc(N2CCOCC2)c1 [Example 65, (2R)—N-{4-methyl-3-[2-(2-methylpyrazol-3-yl)-6-(morpholin-4-yl)pyridin-4-yl]phenyl}-2-(trifluoromethyl)morpholine-4-carboxamide]
< 1 nM	Cc1ccc(NC(=O)N2CC=C(C(F)(F)F)C2)cc1-c1cc(-c2cnn(C)c2)nc(N2CCOCC2)c1 [Example 66, N-{4-methyl-3-[2-(1-methylpyrazol-4-yl)-6-(morpholin-4-yl)pyridin-4-yl]phenyl}-3-(trifluoromethyl)-2,5-dihydropyrrole-1-carboxamide]
< 1 nM	Cc1cc(F)c(NC(=O)N2CCO[C@H](C(F)(F)F)C2)cc1-c1cc(-c2cnn(C)c2)nc(N2CCOCC2)c1 [Example 67, (2S)—N-{2-fluoro-4-methyl-5-[2-(1-methylpyrazol-4-yl)-6-(morpholin-4-yl)pyridin-4-yl]phenyl}-2-(trifluoromethyl)morpholine-4-carboxamide]
< 1 nM	Cc1cc(F)c(NC(=O)N2CCO[C@@H](C(F)(F)F)C2)cc1-c1cc(-c2cnn(C)c2)nc(N2CCOCC2)c1 [Example 68, (2R)—N-{2-fluoro-4-methyl-5-[2-(1-methylpyrazol-4-yl)-6-(morpholin-4-yl)pyridin-4-yl]phenyl}-2-(trifluoromethyl)morpholine-4-carboxamide]
< 1 nM	Cc1cc(F)c(NC(=O)N2CC=C(C(F)(F)F)C2)cc1-c1cc(-c2cnn(C)c2)nc(N2CCOCC2)c1 [Example 69, N-{2-fluoro-4-methyl-5-[2-(1-methylpyrazol-4-yl)-6-(morpholin-4-yl)pyridin-4-yl]phenyl}-3-(trifluoromethyl)-2,5-dihydropyrrole-1-carboxamide]
< 1 nM	Cc1cc(-c2cc(NC(=O)N3CC[C@@H](CC(F)(F)F)C3)c(F)cc2C)cc(N2CCOCC2)n1 [Example 70, (3S)—N-{2-fluoro-4-methyl-5-[2-methyl-6-(morpholin-4-yl)pyridin-4-yl]phenyl}-3-(2,2,2-trifluoroethyl)pyrrolidine-1-carboxamide]
< 1 nM	Cc1cc(F)c(NC(=O)N2CC[C@@H](CC(F)(F)F)C2)cc1-c1cc(C2CC2)nc(N2CCOCC2)c1 [Example 71, (3S)—N-{5-[2-cyclopropyl-6-(morpholin-4-yl)pyridin-4-yl]-2-fluoro-4-methylphenyl}-3-(2,2,2-trifluoroethyl)pyrrolidine-1-carboxamide]
< 1 nM	CCc1cc(-c2cc(NC(=O)N3CC[C@@H](CC(F)(F)F)C3)c(F)cc2C)cc(N2CCOCC2)n1 [Example 72, (3S)—N-{5-[2-ethyl-6-(morpholin-4-yl)pyridin-4-yl]-2-fluoro-4-methylphenyl}-3-(2,2,2-trifluoroethyl)pyrrolidine-1-carboxamide]
< 1 nM	Cc1cc(F)c(NC(=O)N2CC=C(C(F)(F)F)C2)cc1-c1cc(-c2ccnn2C)nc(N2CCOCC2)c1 [Example 73, N-{2-fluoro-4-methyl-5-[2-(2-methylpyrazol-3-yl)-6-(morpholin-4-yl)pyridin-4-yl]phenyl}-3-(trifluoromethyl)-2,5-dihydropyrrole-1-carboxamide]

From US11407737B2, “Inhibitors of RAF kinases” (Kinnate Biopharma Inc., priority 2020, dated 2022)
